Data published in patent publication US20160355530A1, “HEPATITIS C INHIBITORS AND USES THEREOF” (AbbVie Inc., priority 2010, published 2016).
Read-outs that look alike come from different tables or passages of the source.

Key:
[1] = tested on: HCV 1b-BB7 subgenomic replicon; assay: microbe, parasite or virus in culture; assay type: cell-based, HCV genotype 1b; details: Hepatitis C virus, stable replicon
[2] = tested on: HCV NS5B polymerase 1a-H77-C316Y; assay: biochemical; parameters: species or system HCV genotype 1a; details: ratio of enzyme IC50s, 1a H77-C316Y / 1a H77
Method in brief: (§1)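 Recombinant NS5B (residues 1–570, His-tagged, E. coli-expressed) copied 5 nM of a 2.1 kb HCV 1b negative-strand 3′-end RNA template with 20 μM CTP, 20 μM ATP and 0.284 μM [3H]UTP for 3 h at 30 °C. Spermine-precipitated RNA was filter-captured and counted, and IC50 was fitted by nonlinear regression.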

[3] = target: T1, HCV NS5B polymerase 1a-H77 (Hepatitis C virus genotype 1a, UniProt P27958); assay: biochemical; parameters: species or system HCV genotype 1a; details: enzyme, strain 1a H77; read-out: HCV Polymerase Strain 1a H77 IC50
T1 construct: six-histidine tag; made in house; host or cells: E. coli
T1 sequence (P27958 2421-2990): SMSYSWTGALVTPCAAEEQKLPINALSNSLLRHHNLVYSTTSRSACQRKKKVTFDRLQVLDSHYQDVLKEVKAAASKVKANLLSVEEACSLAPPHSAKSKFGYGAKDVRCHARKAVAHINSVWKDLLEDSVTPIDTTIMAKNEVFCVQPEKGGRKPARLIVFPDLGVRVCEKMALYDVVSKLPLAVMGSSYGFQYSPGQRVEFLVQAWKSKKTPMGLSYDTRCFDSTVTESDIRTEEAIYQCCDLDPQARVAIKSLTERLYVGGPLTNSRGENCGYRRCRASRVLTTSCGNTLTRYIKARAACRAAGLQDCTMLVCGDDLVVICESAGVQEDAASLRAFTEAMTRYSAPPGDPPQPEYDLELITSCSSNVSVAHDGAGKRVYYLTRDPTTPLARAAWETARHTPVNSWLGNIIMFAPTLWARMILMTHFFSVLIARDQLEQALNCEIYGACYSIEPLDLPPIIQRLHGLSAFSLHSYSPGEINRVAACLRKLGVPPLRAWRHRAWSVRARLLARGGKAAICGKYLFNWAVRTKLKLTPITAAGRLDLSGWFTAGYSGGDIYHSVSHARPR
Method in brief: as §1

[4] = target: T2, HCV NS5B polymerase 1a-H77-C316Y (Hepatitis C virus genotype 1a, UniProt P27958, C2736Y); assay: biochemical; parameters: species or system HCV genotype 1a
T2 construct: six-histidine tag; made in house; host or cells: E. coli
T2 sequence (P27958 2421-2990 C2736Y): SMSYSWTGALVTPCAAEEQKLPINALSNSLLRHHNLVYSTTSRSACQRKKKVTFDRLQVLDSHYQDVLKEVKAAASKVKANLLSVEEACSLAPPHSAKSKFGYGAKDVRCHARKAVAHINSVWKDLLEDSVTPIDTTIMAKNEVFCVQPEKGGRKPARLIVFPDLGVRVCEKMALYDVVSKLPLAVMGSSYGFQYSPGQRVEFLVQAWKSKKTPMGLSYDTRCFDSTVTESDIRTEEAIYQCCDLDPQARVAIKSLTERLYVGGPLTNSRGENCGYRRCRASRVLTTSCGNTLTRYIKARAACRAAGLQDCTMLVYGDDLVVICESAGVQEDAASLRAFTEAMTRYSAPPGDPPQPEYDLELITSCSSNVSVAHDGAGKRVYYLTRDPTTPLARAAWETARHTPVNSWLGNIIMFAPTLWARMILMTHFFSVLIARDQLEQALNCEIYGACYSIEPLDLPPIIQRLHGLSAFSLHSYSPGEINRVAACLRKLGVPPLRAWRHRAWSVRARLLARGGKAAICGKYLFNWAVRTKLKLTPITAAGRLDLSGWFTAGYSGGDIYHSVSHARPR
Method in brief: as §1

[5] = tested on: chimeric replicon with genotype 2b NS5B; assay: microbe, parasite or virus in culture; assay type: cell-based, HCV genotype 2b; details: Hepatitis C virus, read-out: 2b chimera 5% FBS EC50
[6] = tested on: chimeric replicon with genotype 4a NS5B; assay: microbe, parasite or virus in culture; assay type: cell-based, HCV genotype 4a; details: Hepatitis C virus, read-out: 4a chimera 5% FBS EC50
[7] = tested on: chimeric replicon with 2a-J6CF-derived NS5B; assay: microbe, parasite or virus in culture; assay type: cell-based, HCV genotype 2a; details: Hepatitis C virus, read-out: 2a chimera 5% FBS EC50
[8] = target: T3, HCV NS5B polymerase 1b BK strain (Hepatitis C virus genotype 1b, UniProt P26663); assay: HCV NS5B polymerase enzymatic inhibition assay, strain 1b BK; assay type: biochemical; details: enzyme, strain 1b BK; read-out: HCV Polymerase Strain 1b BK IC50
T3 construct: six-histidine tag; made in house; host or cells: E. coli
T3 sequence (P26663 2420-2989): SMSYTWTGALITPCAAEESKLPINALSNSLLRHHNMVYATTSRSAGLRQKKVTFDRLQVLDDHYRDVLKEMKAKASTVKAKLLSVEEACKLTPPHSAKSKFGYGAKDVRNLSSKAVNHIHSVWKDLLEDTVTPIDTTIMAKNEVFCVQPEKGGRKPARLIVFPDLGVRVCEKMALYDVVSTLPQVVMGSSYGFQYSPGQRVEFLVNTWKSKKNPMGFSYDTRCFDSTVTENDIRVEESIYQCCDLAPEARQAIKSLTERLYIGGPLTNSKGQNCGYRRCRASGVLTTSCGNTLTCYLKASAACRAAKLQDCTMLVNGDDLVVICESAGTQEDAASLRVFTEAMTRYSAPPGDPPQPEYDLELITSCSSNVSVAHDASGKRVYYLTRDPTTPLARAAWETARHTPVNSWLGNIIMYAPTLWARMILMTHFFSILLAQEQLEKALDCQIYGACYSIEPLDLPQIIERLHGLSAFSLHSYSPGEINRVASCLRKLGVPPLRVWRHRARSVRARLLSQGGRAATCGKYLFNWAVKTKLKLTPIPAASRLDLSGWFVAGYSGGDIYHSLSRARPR
Method in brief: as §1

[9] = tested on: HCV 1a-H77 subgenomic replicon; assay: microbe, parasite or virus in culture; assay type: cell-based, HCV genotype 1a; details: Hepatitis C virus, stable replicon
[10] = tested on: chimeric replicon with genotype 3a NS5B; assay: microbe, parasite or virus in culture; assay type: cell-based, HCV genotype 3a; details: Hepatitis C virus, read-out: 3a chimera 5% FBS EC50
[11] = strain 1b BB7, 5% FBS + 40% human plasma, read-out: 1b BB7 5% FBS + 40% Human Plasma EC50
[12] = strain 1b BB7, 5% FBS, no human plasma, read-out: 1b BB7 5% FBS EC50
[13] = strain 1b BB7, 5% FBS, read-out: 1b BB7 5% FBS EC50
[14] = 5% FBS, absence of human plasma, read-out: Stable Replicon 1a H77 5% FBS EC50
[15] = strain 1a H77, 5% FBS + 40% human plasma, read-out: 1a H77 5% FBS + 40% Human Plasma EC50
[16] = strain 1a H77, 5% FBS, no human plasma, read-out: 1a H77 5% FBS EC50
[17] = strain 1a H77, 5% FBS, read-out: 1a H77 5% FBS EC50

| Compound | EC50 [1, 11] | EC50 [1, 12] | EC50 [1, 13] | C316Y/1a Fold Resistance [2] | IC50 [3] | IC50 [4] | EC50 [5] | EC50 [6] | EC50 [7] | IC50 [8] | EC50 [9, 14] | EC50 [9, 15] | EC50 [9, 16] | EC50 [9, 17] | EC50 [10] |
| --- | --- | --- | --- | --- | --- | --- | --- | --- | --- | --- | --- | --- | --- | --- | --- |
| CS(=O)(=O)N(CCCF)c1cc2oc(-c3ccc(F)cc3)c(-c3ncc[nH]3)c2cc1C1CC1 [Example 85, N-[5-cyclopropyl-2-(4-fluorophenyl)-3-(1H-imidazol-2-yl)-1-benzofuran-6-yl]-N-(3-fluoropropyl)methanesulfonamide] | 95 nM | 9.8 nM | 9.8 nM | 20 fold | 4.5 nM | 88 nM | 131 nM | 73.8 nM | 66.2 nM | 18 nM | 21.8 nM | 162 nM | 21.8 nM | 21.8 nM | 6.4 nM |
| CS(=O)(=O)NCCCN(c1cc2oc(-c3ccc(F)cc3)c(-c3ncc[nH]3)c2cc1C1CC1)S(C)(=O)=O [Example 95, N-[5-cyclopropyl-2-(4-fluorophenyl)-3-(1H-imidazol-2-yl)-1-benzofuran-6-yl]-N-{3-[(methylsulfonyl)amino]propyl}methanesulfonamide] | 76.1 nM | 4.8 nM | 4.8 nM | 19 fold | 4.5 nM | 85 nM | 80.8 nM | 46.1 nM | 33.1 nM | 13 nM | 11.2 nM | 121 nM | 11.2 nM | 11.2 nM | 5.7 nM |
| CN(C)C(=O)CCCN(c1cc2oc(-c3ccc(F)cc3)c(-c3ncc[nH]3)c2cc1C1CC1)S(C)(=O)=O [Example 102, 4-{[5-cyclopropyl-2-(4-fluorophenyl)-3-(1H-imidazol-2-yl)-1-benzofuran-6-yl](methylsulfonyl)amino}-N,N-dimethylbutanamide] | 66 nM | 10 nM | 10 nM | 22 fold | 7.7 nM | 168 nM | 134 nM | 145 nM | 108 nM | 47 nM | 24.1 nM | 242 nM | 24.1 nM | 24.1 nM | 9.7 nM |
| CNC(=O)CCCN(c1cc2oc(-c3ccc(F)cc3)c(-c3ncc[nH]3)c2cc1C1CC1)S(C)(=O)=O [Example 107, 4-{[5-cyclopropyl-2-(4-fluorophenyl)-3-(1H-imidazol-2-yl)-1-benzofuran-6-yl](methylsulfonyl)amino}-N-methylbutanamide] | 66 nM | 11 nM | 11 nM | 22 fold | 5.5 nM | 122 nM | 141 nM | 129 nM | 135 nM | 28 nM | 17.5 nM | 82 nM | 17.5 nM | 17.5 nM | 9.3 nM |
| [2H]C([2H])(CCCCC)N(c1cc2oc(-c3ccc(F)cc3)c(-c3ncc[nH]3)c2cc1C1CC1)S(C)(=O)=O [Example 113, N-[5-cyclopropyl-2-(4-fluorophenyl)-3-(1H-imidazol-2-yl)-1-benzofuran-6-yl]-N-[(1,1-^2H2)hexyl]methanesulfonamide] | 549 nM | 28 nM | 28 nM | 22 fold | 6.5 nM | 140 nM | 279 nM | 144 nM | 209 nM | 16 nM | 59.9 nM | 646 nM | 59.9 nM | 59.9 nM | 41 nM |
| CCOP(=O)(CCCN(c1cc2oc(-c3ccc(F)cc3)c(C3=NOCCN3)c2cc1C1CC1)S(C)(=O)=O)OCC [Example 116, diethyl (3-{[5-cyclopropyl-3-(5,6-dihydro-4H-1,2,4-oxadiazin-3-yl)-2-(4-fluorophenyl)-1-benzofuran-6-yl](methylsulfonyl)amino}propyl)phosphonate] | 213 nM | 32 nM | 32 nM | 8 fold | 7.5 nM | 63 nM | 396 nM | 247 nM | 535 nM | 35 nM | 35.9 nM | 157 nM | 35.9 nM | 35.9 nM | 84 nM |
| CS(=O)(=O)N(CCCC(F)(F)F)c1cc2oc(-c3ccc(F)cc3)c(C3=NOCCN3)c2cc1C1CC1 [Example 117, N-[5-cyclopropyl-3-(5,6-dihydro-4H-1,2,4-oxadiazin-3-yl)-2-(4-fluorophenyl)-1-benzofuran-6-yl]-N-(4,4,4-trifluorobutyl)methanesulfonamide] | 245 nM | 30 nM | 30 nM | 8 fold | 4.5 nM | 36 nM | 240 nM | 233 nM | 214 nM | 31 nM | 22 nM | 159 nM | 22 nM | 22 nM | 31 nM |
| CS(=O)(=O)N(CCC(F)(F)F)c1cc2oc(-c3ccc(F)cc3)c(C3=NOCCN3)c2cc1C1CC1 [Example 118, N-[5-cyclopropyl-3-(5,6-dihydro-4H-1,2,4-oxadiazin-3-yl)-2-(4-fluorophenyl)-1-benzofuran-6-yl]-N-(3,3,3-trifluoropropyl)methanesulfonamide] | 253 nM | 26 nM | 26 nM | 19 fold | 5.9 nM | 114 nM | 477 nM | 449 nM | 230 nM | 49 nM | 19.8 nM | 165 nM | 19.8 nM | 19.8 nM | 47 nM |
| CS(=O)(=O)N(CCCn1cccc1)c1cc2oc(-c3ccc(F)cc3)c(C3=NOCCN3)c2cc1C1CC1 [Example 119, N-[5-cyclopropyl-3-(5,6-dihydro-4H-1,2,4-oxadiazin-3-yl)-2-(4-fluorophenyl)-1-benzofuran-6-yl]-N-[3-(1H-pyrrol-1-yl)propyl]methanesulfonamide] | 129 nM | 17 nM | 17 nM | 6 fold | 7 nM | 41 nM | 189 nM | 142 nM | 79 nM | 38 nM | 19.4 nM | 247 nM | 19.4 nM | 19.4 nM | 30 nM |
| CS(=O)(=O)N(CCCCC(F)=C(F)F)c1cc2oc(-c3ccc(F)cc3)c(C3=NOCCN3)c2cc1C1CC1 [Example 120, N-[5-cyclopropyl-3-(5,6-dihydro-4H-1,2,4-oxadiazin-3-yl)-2-(4-fluorophenyl)-1-benzofuran-6-yl]-N-(5,6,6-trifluorohex-5-en-1-yl)methanesulfonamide] | 189 nM | 18 nM | 18 nM | 6 fold | 5 nM | 28 nM | 157 nM | 82 nM | 125 nM | 47 nM | 17.5 nM | 190 nM | 17.5 nM | 17.5 nM | 36 nM |
| CC(C)(O)CCN(c1cc2oc(-c3ccc(F)cc3)c(C3=NOCCN3)c2cc1C1CC1)S(C)(=O)=O [Example 125, N-[5-cyclopropyl-3-(5,6-dihydro-4H-1,2,4-oxadiazin-3-yl)-2-(4-fluorophenyl)-1-benzofuran-6-yl]-N-(3-hydroxy-3-methylbutyl)methanesulfonamide] | 347 nM | 20 nM | 20 nM | 10 fold | 11 nM | 112 nM | 182 nM | 85 nM | 222 nM | 60 nM | 12.6 nM | 156 nM | 12.6 nM | 12.6 nM | 50 nM |
